Laboratory results published in patent publication EP0108606B1, “Steroid compounds” (STERWIN AG., priority 1982, dated 1984).
Like-named read-outs stand apart in the source and are kept apart here.

How the values were obtained:
[1] = Bioavailability Test: plasma levels after oral 60 mg capsules of different trilostane particle size; format: in vivo, volunteers; conditions: for AUC at 24 h: human, plasma, po, 120 mg, 120 mg trilostane (2 x 60 mg capsules) oral, empty stomach, eight volunteers, read-out: Trilostane AUCo^24
Protocol: 60 mg capsules were prepared as described in Example 1 by wet granulation techniques using batches of trilostane comprising (i) particles having a mean equivalent sphere volume diameter of about 10 µm (at least about 95% of the particles having a particle size of less than about 50 pm), (ii) particles of mean equivalent sphere volume diameter of about 45 µm, and (iii) particles of mean equivalent sphere volume diameter greater than 100 pm.
In a three part double blind cross-over study on eight volunteers, each volunteer received a dosage of 120 mg of trilostane (2 x 60 mg capsules) on an empty stomach with 50 ml of tap water. Blood samples (8 ml) were taken pre-medication and at 0.5, 1.0, 2.0, 3.0, 4.0, 5.0, 6.0, 8.0, 10.0 and 24.0 hours and assayed for plasma levels of trilostane and trilostane metabolite. Plasma concentrations were processed by a computer programme giving maximum concentration in plasma (Cmax) and time taken to reach this maximum (Tmax) by inspection. Values for the area under the curve of concentration against time over the time span 0 to t ( [formula] ―where t is time) were then calculated using the trapezoid rule and statistical analysis was carried out using the Students paired t-test.
The following Table I sets out [formula] values (mg.ml^-1.h) for trilostane and 17-keto metabolite.

[2] = In vitro dissolution or release testing of products with different trilostane particle sizes; format: physicochemical; conditions: products containing batches of trilostane of differing particle sizes

**Q.** What does the source list for `C[C@]12CC[C@H]3[C@@H](CC[C@@]45O[C@@H]4C(O)=C(C#N)C[C@]35C)[C@@H]1CC[C@@H]2O` [Trilostane, 2a-cyano-4a,5a-epoxyandrostan-17a-ol-3-one]?
**A.** ratio of Metabolite AUC to Trilostane AUCo^4 ([1]; 10 µm material): 3.1; ratio of Metabolite AUC to Trilostane AUCo^4 ([1]; 45 µm material): 4.5; ratio of Metabolite AUC to Trilostane AUCo^4 ([1]; 100 µm material): 6.5; plasma levels at 24 hours ([1]; 24 hours after 120 mg oral, in most cases): could not be detected; AUC at 24 h ([1]; particle size 10 µm): 1600 µg·h/mL; AUC at 24 h ([1]; particle size 45 µm): 600 µg·h/mL; AUC at 24 h ([1]; particle size 100 µm): 200 µg·h/mL; dissolution or release properties [2]: could not be differentiated
